Data as given in patent US8192962B2, “Processes for detecting toxic substances” (Daikin Industries, Ltd., priority 2001, dated 2012).

Tested on: Energy system protein genes
Assay: DNA chip mRNA expression in yeast, energy system protein genes (Table 4)
Format: cell-based, Saccharomyces cerevisiae S288C
Procedure, shortened: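 Value is the scanned fluorescence intensity ratio of exposed versus chemical-free cells. Log-phase S288C yeast in YPD at 25° C. received one toxic substance for two hours, dosed to slow growth without killing; Cy3/Cy5-labeled cDNA from oligo-dT-purified mRNA was hybridized to a whole-genome chip at 65° C.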

Measured: The level of expressed mRNA in the presence of chemical substance/The level of expressed mRNA in the absence of chemical substance

CCCCCCCCCCCCc1ccc(S(=O)(=O)[O-])cc1.[Na+] [(17), sodium dodecylbenzosulfonate]
1.4: yeast gene YCL040W | yeast gene YFR053C | yeast gene YPL031C, cells incubated two hours with the chemical substance
0.8: yeast gene YBR185C, cells incubated two hours with the chemical substance | yeast gene YCR012W | yeast gene YGL018C, cells incubated two hours with the chemical substance | yeast gene YKL148C, cells incubated two hours with the chemical substance | yeast gene YKR058W, cells incubated two hours with the chemical substance, 25° C., YPD medium | yeast gene YMR073C, cells incubated two hours with the chemical substance | yeast gene YMR118C | yeast gene YPL240C
1.0: yeast gene YBL058W, cells incubated two hours with the chemical substance | yeast gene YBR001C, cells incubated two hours with the chemical substance | yeast gene YDR529C, cells incubated two hours with the chemical substance | yeast gene YGR087C, cells incubated two hours with the chemical substance | yeast gene YKL016C, cells incubated two hours with the chemical substance | yeast gene YLR258W, cells incubated two hours with the chemical substance | yeast gene YLR354C, cells incubated two hours with the chemical substance | yeast gene YML120C, cells incubated two hours with the chemical substance | yeast gene YNL071W | yeast gene YNL241C | yeast gene YOR178C, cells incubated two hours with the chemical substance | yeast gene YOR388C, cells incubated two hours with the chemical substance | yeast gene YPL275W, cells incubated two hours with the chemical substance | yeast gene YPR184W, cells incubated two hours with the chemical substance
2.9: yeast gene YLR284C, cells incubated two hours with the chemical substance
2.4: yeast gene YIL160C | yeast gene YNL202W, cells incubated two hours with the chemical substance | yeast gene YPL171C
0.9: yeast gene YBR221C, cells incubated two hours with the chemical substance | yeast gene YGL187C, cells incubated two hours with the chemical substance | yeast gene YGR062C, cells incubated two hours with the chemical substance, 25° C., YPD medium | yeast gene YIR031C, cells incubated two hours with the chemical substance | yeast gene YKL141W, cells incubated two hours with the chemical substance | yeast gene YLR044C, cells incubated two hours with the chemical substance | yeast gene YLR295C, cells incubated two hours with the chemical substance, 25° C., YPD medium | yeast gene YLR377C, cells incubated two hours with the chemical substance | yeast gene YMR267W, cells incubated two hours with the chemical substance, 25° C., YPD medium | yeast gene YOR142W, cells incubated two hours with the chemical substance
2.2: yeast gene YDL174C
1.6: yeast gene YFL057C | yeast gene YGR043C | yeast gene YOL165C | yeast gene YPL061W, cells incubated two hours with the chemical substance
9.1: yeast gene YPL088W
0.6: yeast gene YLR134W, cells incubated two hours with the chemical substance | yeast gene YMR205C, cells incubated two hours with the chemical substance
1.9: yeast gene YDL021W | yeast gene YGR244C | yeast gene YHR179W | yeast gene YKR009C, cells incubated two hours with the chemical substance
1.3: yeast gene YCR046C, cells incubated two hours with the chemical substance | yeast gene YCR105W, cells incubated two hours with the chemical substance | yeast gene YGR174C, cells incubated two hours with the chemical substance | yeast gene YGR254W | yeast gene YJR155W | yeast gene YML129C, cells incubated two hours with the chemical substance
0.7: yeast gene YBL099W, cells incubated two hours with the chemical substance | yeast gene YEL039C, cells incubated two hours with the chemical substance | yeast gene YGL256W, cells incubated two hours with the chemical substance | yeast gene YML087C | yeast gene YMR261C, cells incubated two hours with the chemical substance | yeast gene YPR048W, cells incubated two hours with the chemical substance
1.1: yeast gene YAL060W | yeast gene YDL078C, cells incubated two hours with the chemical substance | yeast gene YDL107W, cells incubated two hours with the chemical substance | yeast gene YDR001C | yeast gene YDR050C, cells incubated two hours with the chemical substance | yeast gene YDR079W, cells incubated two hours with the chemical substance | yeast gene YDR298C, cells incubated two hours with the chemical substance | yeast gene YEL024W, cells incubated two hours with the chemical substance | yeast gene YER178W | yeast gene YGL062W | yeast gene YGR192C | yeast gene YJL121C, cells incubated two hours with the chemical substance | yeast gene YJR009C | yeast gene YJR121W, cells incubated two hours with the chemical substance | yeast gene YKR097W | yeast gene YLL041C, cells incubated two hours with the chemical substance | yeast gene YMR323W, cells incubated two hours with the chemical substance | yeast gene YOL086C, cells incubated two hours with the chemical substance | yeast gene YPL262W, cells incubated two hours with the chemical substance | yeast gene YPL276W, cells incubated two hours with the chemical substance
0.5: yeast gene YLR304C, cells incubated two hours with the chemical substance
1.7: yeast gene YJL166W, cells incubated two hours with the chemical substance | yeast gene YNL331C
3.9: yeast gene YGL205W, cells incubated two hours with the chemical substance
1.2: yeast gene YDL067C, cells incubated two hours with the chemical substance | yeast gene YDR178W, cells incubated two hours with the chemical substance | yeast gene YDR231C | yeast gene YDR377W, cells incubated two hours with the chemical substance | yeast gene YGL191W, cells incubated two hours with the chemical substance | yeast gene YJL052W | yeast gene YJL216C, cells incubated two hours with the chemical substance | yeast gene YJR048W | yeast gene YKL060C, cells incubated two hours with the chemical substance | yeast gene YLR038C, cells incubated two hours with the chemical substance | yeast gene YLR345W | yeast gene YLR395C, cells incubated two hours with the chemical substance
1.5: yeast gene YDL181W, cells incubated two hours with the chemical substance
